biological target: Human DAAO (Homo sapiens, UniProt P14920); test: D-Amino Acid Oxidase enzyme assay (D-serine, horseradish peroxidase/Amplex Red coupled fluorescence); assay type: biochemical; details: D-serine 5 mM, pH 7.4
Protocol: DAAO enzyme activity was measured using the substrate D-serine at its Michaelis-Menton Km of 5 mM. The rate of oxidation is measured as a rate of production of hydrogen peroxide, which was detected using the enzyme horseradish peroxidase (Sigma cat. No. P-8375). This coupled reaction uses the enzyme substrate Amplex Red (Molecular Probes), which is converted to the fluorescent reaction product, resorufin (excitation 530-560 nm; emission ˜590 nm). Although DAAO has a higher pH optimum, all reagents were prepared in 50 mM sodium phosphate buffer at pH 7.4 and inhibition curves were generated at this pH.
The final concentrations of components in 200 μl total volume per well (black clear-bottom 96-well plate, Costar) were:
(a) Horseradish peroxidase: 4 Units per mL
(d) Amplex Red reagent: 50 uM
The reactions were initiated by addition of DAAO enzyme and the fluorescence was monitored. H2O2 was added at 16 uM final concentration to a control well on each plate to test for compound interference with a coupled enzyme. Inhibition curves were generated in the presence of varying concentrations of the inhibitor and IC50 values were calculated for each inhibitor.

Human DAAO, sequence (P14920 whole entry): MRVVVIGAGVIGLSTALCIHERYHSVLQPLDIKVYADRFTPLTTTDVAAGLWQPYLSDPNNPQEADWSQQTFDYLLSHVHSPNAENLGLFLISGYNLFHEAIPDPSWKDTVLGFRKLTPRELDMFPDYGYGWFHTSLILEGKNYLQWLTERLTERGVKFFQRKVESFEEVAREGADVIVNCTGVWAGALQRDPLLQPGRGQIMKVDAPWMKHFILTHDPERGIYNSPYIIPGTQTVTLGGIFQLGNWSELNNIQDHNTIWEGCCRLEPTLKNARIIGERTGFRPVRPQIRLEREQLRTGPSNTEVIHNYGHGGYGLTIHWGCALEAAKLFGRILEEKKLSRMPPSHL

| SMILES | IC50 |
| --- | --- |
| O=C(O)c1cc2c([nH]1)CCC2CCc1ccccc1 (single isomer, unassigned) [Compound 19, 4-phenethyl-1,4,5,6-tetrahydrocyclopenta[b]pyrrole-2-carboxylic acid] | ≤ 1 µM |
| O=C(O)c1cc2c([nH]1)CC/C2=C\c1ccc(F)cc1 [Compound 13, (E)-4-(4-fluorobenzylidene)-1,4,5,6-tetrahydrocyclopenta[b]pyrrole-2-carboxylic acid] | ≤ 100 µM |
| O=C(O)c1cc2c([nH]1)CCC2CCc1ccccc1 (single isomer, unassigned) [Compound 20, 4-phenethyl-1,4,5,6-tetrahydrocyclopenta[b]pyrrole-2-carboxylic acid] | ≤ 100 µM |
| CC(C)C1CCc2[nH]c(C(=O)O)cc21 (centres unmarked) [Compound 10, 4-isopropyl-1,4,5,6-tetrahydrocyclopenta[b]pyrrole-2-carboxylic acid] | ≤ 1 µM |
| O=C(O)c1cc2c([nH]1)C(CCc1ccccc1)CC2 (centres unmarked) [Compound 27, 6-phenethyl-1,4,5,6-tetrahydrocyclopenta[b]pyrrole-2-carboxylic acid] | ≤ 1 µM |
| CC(C)CC1CCc2[nH]c(C(=O)O)cc21 (centres unmarked) [Compound 11, 4-isobutyl-1,4,5,6-tetrahydrocyclopenta[b]pyrrole-2-carboxylic acid] | ≤ 1 µM |
| O=C(O)c1cc2c([nH]1)CCC2Cc1ccc(F)cc1 (single isomer, unassigned) [Compound 40, 4-(4-fluorobenzyl)-1,4,5,6-tetrahydrocyclopenta[b]pyrrole-2-carboxylic acid] | ≤ 0.1 µM |
| Cc1cc(F)ccc1CC1CCc2[nH]c(C(=O)O)cc21 (single isomer, unassigned) [Compound 52, 4-(4-fluoro-2-methylbenzyl)-1,4,5,6-tetrahydrocyclopenta[b]pyrrole-2-carboxylic acid] | ≤ 100 µM |
| O=C(O)c1cc2c([nH]1)CCCC2 [Compound 30, 4,5,6,7-tetrahydro-1H-indole-2-carboxylic acid] | ≤ 1 µM |
| CC1CCc2[nH]c(C(=O)O)cc21 (racemic) [Compound 4, 4-methyl-1,4,5,6-tetrahydrocyclopenta[b]pyrrole-2-carboxylic acid] | ≤ 1 µM |
| O=C(O)c1cc2c([nH]1)CCC2Cc1ccc(F)c(Cl)c1 (racemic) [Compound 48, 4-(3-chloro-4-fluorobenzyl)-1,4,5,6-tetrahydrocyclopenta[b]pyrrole-2-carboxylic acid] | ≤ 0.1 µM |
| O=C(O)c1cc2c([nH]1)CCC2Cc1ccc(F)c(F)c1 (single isomer, unassigned) [Compound 43, 4-(3,4-difluorobenzyl)-1,4,5,6-tetrahydrocyclopenta[b]pyrrole-2-carboxylic acid] | ≤ 100 µM |
| CCCC1CCc2[nH]c(C(=O)O)cc21 (single isomer, unassigned) [Compound 9, 4-propyl-1,4,5,6-tetrahydrocyclopenta[b]pyrrole-2-carboxylic acid] | ≤ 100 µM |
| O=C(O)c1cc2c([nH]1)C(=Cc1ccccc1)CC2 (mixture of isomers) [Compound 25, (E/Z)-6-benzylidene-1,4,5,6-tetrahydrocyclopenta[b]pyrrole-2-carboxylic acid] | ≤ 100 µM |

Continued, values first:

| IC50 | SMILES |
| --- | --- |
| ≤ 1 µM | O=C(O)c1cc2c([nH]1)C(Cc1ccc(-c3ccccc3)cc1)CC2 (centres unmarked) [Compound 133, 6-(biphenyl-4-ylmethyl)-1,4,5,6-tetrahydrocyclopenta[b]pyrrole-2-carboxylic acid] |
| ≤ 1 µM | O=C(O)c1cc2c([nH]1)CCC2Cc1cccc(-c2ccc(CO)cc2)c1 (centres unmarked) [Compound 86, 4-((4′-(hydroxymethyl)biphenyl-3-yl)methyl)-1,4,5,6-tetrahydrocyclopenta[b]pyrrole-2-carboxylic acid] |
| ≤ 0.1 µM | O=C(O)c1cc2c([nH]1)CCC2Cc1cccc(Cl)c1 (centres unmarked) [Compound 56, 4-(3-chlorobenzyl)-1,4,5,6-tetrahydrocyclopenta[b]pyrrole-2-carboxylic acid] |
| ≤ 100 µM | O=C(O)c1cc2c([nH]1)CCC2Cc1cccc(-c2ccc[nH]2)c1 (single isomer, unassigned) [Compound 92, 4-(3-(1H-pyrrol-2-yl)benzyl)-1,4,5,6-tetrahydrocyclopenta[b]pyrrole-2-carboxylic acid] |
| ≤ 1 µM | O=C(O)c1cc2c([nH]1)CCC2Cc1ccc(-c2ccccc2)cc1 (centres unmarked) [Compound 81, 4-(biphenyl-4-ylmethyl)-1,4,5,6-tetrahydrocyclopenta[b]pyrrole-2-carboxylic acid] |
| ≤ 0.1 µM | O=C(O)c1cc2c([nH]1)CCC2c1cccc(Br)c1 (centres unmarked) [Compound 103, 4-(3-bromophenyl)-1,4,5,6-tetrahydrocyclopenta[b]pyrrole-2-carboxylic acid] |
| ≤ 100 µM | O=C(O)c1[nH]c2c(c1Br)[C@H]1C[C@H]1C2 [Compound 145, (1aS,5aS)-1a,4,5,5a-tetrahydro-1H-2-bromo-4-aza-cyclopropa[α]pentalene-3-carboxylic acid] |
| ≤ 0.1 µM | C#Cc1cccc(CC2CCc3[nH]c(C(=O)O)cc32)c1 (centres unmarked) [Compound 74, 4-(3-ethynylbenzyl)-1,4,5,6-tetrahydrocyclopenta[b]pyrrole-2-carboxylic acid] |
| ≤ 0.1 µM | COc1cccc(CC2CCc3cc(C(=O)O)[nH]c32)c1 (racemic) [Compound 129, 6-(3-methoxybenzyl)-1,4,5,6-tetrahydrocyclopenta[b]pyrrole-2-carboxylic acid] |
| ≤ 1 µM | O=C(O)c1cc2c([nH]1)CCC2c1ccc(Cc2ccccc2)cc1 (centres unmarked) [Compound 107, 4-(4-benzylphenyl)-1,4,5,6-tetrahydrocyclopenta[b]pyrrole-2-carboxylic acid] |
| ≤ 100 µM | COC1c2cc(C(=O)O)[nH]c2CC1(F)F (centres unmarked) [Compound 148, 5,5-difluoro-4-methoxy-1,4,5,6-tetrahydrocyclopenta[b]pyrrole-2-carboxylic acid] |
| ≤ 0.1 µM | O=C(O)c1cc2c([nH]1)C(Cc1cccc(O)c1)CC2 (centres unmarked) [Compound 128, 6-(3-hydroxybenzyl)-1,4,5,6-tetrahydrocyclopenta[b]pyrrole-2-carboxylic acid] |
| ≤ 100 µM | Cc1cc(C)cc(C2CCc3[nH]c(C(=O)O)cc32)c1 (centres unmarked) [Compound 104, 4-(3,5-dimethylphenyl)-1,4,5,6-tetrahydrocyclopenta[b]pyrrole-2-carboxylic acid] |
| ≤ 1 µM | CC1CCc2cc(C(=O)O)[nH]c21 (centres unmarked) [Compound 109, 6-methyl-1,4,5,6-tetrahydrocyclopenta[b]pyrrole-2-carboxylic acid] |
| ≤ 1 µM | O=C(O)c1cc2c([nH]1)C(c1ccc(-c3ccccc3)cc1)CC2 (racemic) [Compound 118, 6-(biphenyl-4-yl)-1,4,5,6-tetrahydrocyclopenta[b]pyrrole-2-carboxylic acid] |
| ≤ 100 µM | O=C(O)c1cc2c([nH]1)C[C@@H]1[C@@H](c3ccccc3)[C@H]21 (racemic) [Compound 144, ±(1R,1aR,5aR)-1-phenyl-1a,4,5,5a-tetrahydro-1H-4-aza-cyclopropa[α]pentalene-3-carboxylic acid] |
| ≤ 1 µM | CC(=O)c1cccc(CC2CCc3[nH]c(C(=O)O)cc32)c1 (centres unmarked) [Compound 76, 4-(3-acetylbenzyl)-1,4,5,6-tetrahydrocyclopenta[b]pyrrole-2-carboxylic acid] |
| ≤ 1 µM | CCCC1CCc2cc(C(=O)O)[nH]c21 (centres unmarked) [Compound 110, 6-propyl-1,4,5,6-tetrahydrocyclopenta[b]pyrrole-2-carboxylic acid] |

From patent US7902252B2, “Inhibitors of D-amino acid oxidase” (Sepracor, Inc., priority 2007, dated 2011)
